Drawing on PubChem BioAssay AID256 (DTP/NCI, 2004), this text covers T/C for 15 compounds.

Where “and” joins values, the source holds several entries; their conditions need not be identical. Equal entries are not always repeated. Toxic doses and inconclusive results are not listed.

The subject of this assay is CD2F1 mice, L1210 leukemia ip, survival T/C. Put plainly: NCI In Vivo Anticancer Drug Screen. Data for tumor model L1210 Leukemia (intraperitoneal) in CD2F1 (CDF1) mice. The conditions noted are these: endpoint: mean survival time, higher = longer survival. Put shortly: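 Vehicle-treated tumor-bearing mice served as controls (C) for compound-treated mice (T). Reported figure is T divided by C.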

[1] abbreviates: dose: 50.0 mg/kg/injection, schedule: Q01DX009 (ip), vehicle: saline.
Setting [2] is: dose: 100.0 mg/kg/injection, schedule: Q01DX009 (ip), vehicle: saline.
Setting [3] is: dose: 100.0 mg/kg/injection, schedule: Q04DX003 (ip), vehicle: saline.
Setting [4] is: dose: 200.0 mg/kg/injection, schedule: Q01DX009 (ip), vehicle: saline.
The mark [5] stands for this setting: dose: 200.0 mg/kg/injection, schedule: Q04DX003 (ip), vehicle: saline.
The mark [6] stands for this setting: dose: 100.0 mg/kg/injection, schedule: Q04DX003 (ip), vehicle: saline with Tween-80.
The mark [7] stands for this setting: dose: 200.0 mg/kg/injection, schedule: Q04DX003 (ip), vehicle: saline with Tween-80.
The mark [8] stands for this setting: dose: 400.0 mg/kg/injection, schedule: Q04DX003 (ip), vehicle: saline with Tween-80.
Setting [9] is: dose: 75.0 mg/kg/injection, schedule: Q01DX001 (ip), vehicle: other.
Where [10] appears, read: dose: 100.0 mg/kg/injection, schedule: Q01DX009 (ip), vehicle: saline with Tween-80.
[11] abbreviates: dose: 200.0 mg/kg/injection, schedule: Q01DX009 (ip), vehicle: saline with Tween-80.

As for `CS(=O)(=O)OCCCN(CCCOS(C)(=O)=O)CCCN1CCOCC1`, the T/C reads like this: (dose: 10.0 mg/kg/injection, schedule: Q01DX009 (ip), vehicle: saline) 197 % of control; (dose: 12.0 mg/kg/injection, schedule: Q01DX001 (ip), vehicle: saline) 118 % of control; (dose: 12.5 mg/kg/injection, schedule: Q04DX003 (ip), vehicle: saline) 122 % of control; (dose: 20.0 mg/kg/injection, schedule: Q01DX001 (ip), vehicle: saline) 150 % of control; (dose: 20.0 mg/kg/injection, schedule: Q01DX005 (ip), vehicle: saline) 152 % of control; (dose: 20.0 mg/kg/injection, schedule: Q01DX009 (ip), vehicle: saline) 230 % of control. Moreover, the T/C by setting is: (dose: 20.0 mg/kg/injection, schedule: Q02DX003 (ip), vehicle: saline) 152 % of control; (dose: 20.0 mg/kg/injection, schedule: Q04DX003 (ip), vehicle: saline) 156 % of control; (dose: 40.0 mg/kg/injection, schedule: Q01DX001 (ip), vehicle: saline) 200 % of control; (dose: 40.0 mg/kg/injection, schedule: Q01DX005 (ip), vehicle: saline) 182 % of control; (dose: 40.0 mg/kg/injection, schedule: Q01DX009 (ip), vehicle: saline) 238 % of control; (dose: 40.0 mg/kg/injection, schedule: Q02DX003 (ip), vehicle: saline) 166 % of control. For the same compound, the T/C was 180 % of control under setting [1]; 122 % of control (dose: 50.0 mg/kg/injection, schedule: Q04DX003 (ip), vehicle: saline); 159 % of control (dose: 60.0 mg/kg/injection, schedule: Q01DX001 (ip), vehicle: saline); 189 % of control (dose: 60.0 mg/kg/injection, schedule: Q01DX005 (ip), vehicle: saline); 230 % of control (dose: 60.0 mg/kg/injection, schedule: Q01DX009 (ip), vehicle: saline); 191 % of control (dose: 60.0 mg/kg/injection, schedule: Q02DX003 (ip), vehicle: saline). In addition, the T/C reads like this: (dose: 60.0 mg/kg/injection, schedule: Q04DX003 (ip), vehicle: saline) 190 % of control; (dose: 75.0 mg/kg/injection, schedule: Q04DX003 (ip), vehicle: saline) 162 % of control; (dose: 80.0 mg/kg/injection, schedule: Q01DX005 (ip), vehicle: saline) 234 % of control; (dose: 80.0 mg/kg/injection, schedule: Q01DX009 (ip), vehicle: saline) 290 % of control; (dose: 80.0 mg/kg/injection, schedule: Q02DX003 (ip), vehicle: saline) 189 % of control; (dose: 80.0 mg/kg/injection, schedule: Q04DX003 (ip), vehicle: saline) 206 % of control. Further, the T/C is 153 % of control and 265 % of control (dose: 100.0 mg/kg/injection, schedule: Q01DX001 (ip), vehicle: saline); 281 % of control (dose: 100.0 mg/kg/injection, schedule: Q01DX005 (ip), vehicle: saline); 190 % of control and 270 % of control under setting [2]; 215 % of control (dose: 100.0 mg/kg/injection, schedule: Q02DX003 (ip), vehicle: saline); 165 % of control and 236 % of control under setting [3]; 197 % of control (dose: 150.0 mg/kg/injection, schedule: Q04DX003 (ip), vehicle: saline). Also, the T/C by setting is: (dose: 200.0 mg/kg/injection, schedule: Q01DX001 (ip), vehicle: saline) 234 % of control; under setting [4], 105 % of control; under setting [5], 228 % of control and 297 % of control.
In the case of `CC(COP(N)(=O)N(CCCl)CCCl)C(C)OCc1ccccc1` (centres undefined), the T/C is, setting by setting: (dose: 15.62 mg/kg/injection, schedule: Q01DX001 (ip), vehicle: DMSO) 101 % of control; (dose: 31.3 mg/kg/injection, schedule: Q01DX001 (ip), vehicle: DMSO) 106 % of control; (dose: 62.5 mg/kg/injection, schedule: Q01DX001 (ip), vehicle: DMSO) 101 % of control; (dose: 125.0 mg/kg/injection, schedule: Q01DX001 (ip), vehicle: DMSO) 103 % of control; (dose: 250.0 mg/kg/injection, schedule: Q01DX001 (ip), vehicle: DMSO) 95 % of control; (dose: 500.0 mg/kg/injection, schedule: Q01DX001 (ip), vehicle: DMSO) 93 % of control.
For `COC(=S)C(c1ccccc1)(c1ccccc1)c1ccccc1`, the T/C is 93 % of control (dose: 100.0 mg/kg/injection, schedule: Q04DX002 (ip), vehicle: Klucel (hydroxypropylcellulose) (HPC)); 89 % of control (dose: 200.0 mg/kg/injection, schedule: Q04DX002 (ip), vehicle: Klucel (hydroxypropylcellulose) (HPC)); 89 % of control (dose: 400.0 mg/kg/injection, schedule: Q04DX002 (ip), vehicle: Klucel (hydroxypropylcellulose) (HPC)).
For `N#Cc1ccc(NCCO)cc1`, the T/C is, setting by setting: under setting [6], 89 % of control; under setting [7], 101 % of control; under setting [8], 91 % of control.
As to `CN(C)CC(Cl)CCl` (centres undefined), the T/C (dose: 12.5 mg/kg/injection, schedule: Q01DX009 (ip), vehicle: saline) is 98 % of control; the T/C (dose: 25.0 mg/kg/injection, schedule: Q01DX009 (ip), vehicle: saline) is 98 % of control; the T/C under setting [1] is 104 % of control; the T/C under setting [2] was 105 % of control and 108 % of control; the T/C under setting [4] was 116 % of control and 101 % of control.
Regarding `CC1CN(CCC#N)C(=O)S1(=O)=O` (centres undefined), under setting [9], the T/C was 108 % of control.
On to `C[n+]1c2ccccc2c(Cl)c2ccccc21`, for which the T/C (dose: 100.0 mg/kg/injection, schedule: Q01DX001 (ip), vehicle: saline with Tween-80) is 104 % of control and the T/C (dose: 200.0 mg/kg/injection, schedule: Q01DX001 (ip), vehicle: saline with Tween-80) was 109 % of control.
`C=C(C)C1CCC2(C=O)CCC3(C)C(CCC4C5(C)CCC(OC6CCCCO6)C(C)(C)C5CCC43C)C12` (centres undefined): the T/C (dose: 6.25 mg/kg/injection, schedule: Q04DX002 (ip), vehicle: saline with Tween-80) is 111 % of control; the T/C (dose: 12.5 mg/kg/injection, schedule: Q04DX002 (ip), vehicle: saline with Tween-80) was 100 % of control; the T/C (dose: 25.0 mg/kg/injection, schedule: Q04DX002 (ip), vehicle: saline with Tween-80) is 100 % of control.
Take `O/N=C(/CN1CCOCC1)c1ccc(Cl)cc1`: the T/C reads like this: under setting [1], 100 % of control; under setting [2], 97 % of control; under setting [4], 103 % of control.
Turning to `CCOC(=O)C(C(C)=O)C(=O)c1ccc([N+](=O)[O-])cc1` (centres undefined), the T/C runs as follows: under setting [10], 102 % of control; under setting [6], 100 % of control; under setting [11], 101 % of control; under setting [7], 102 % of control; (dose: 400.0 mg/kg/injection, schedule: Q01DX009 (ip), vehicle: saline with Tween-80) 98 % of control; under setting [8], 100 % of control.
For the compound `Cc1ccc2[nH]c(=O)[nH]c(=O)c2n1`, the T/C is, setting by setting: under setting [9], 98 % of control; (dose: 150.0 mg/kg/injection, schedule: Q01DX001 (ip), vehicle: other) 98 % of control.
With `CC1CN(CCC#N)CC(C)O1` (centres undefined), the T/C under setting [2] is 105 % of control; the T/C under setting [3] is 95 % of control; the T/C under setting [4] is 104 % of control; the T/C under setting [5] was 104 % of control; the T/C (dose: 400.0 mg/kg/injection, schedule: Q01DX009 (ip), vehicle: saline) was 104 % of control; the T/C (dose: 400.0 mg/kg/injection, schedule: Q04DX003 (ip), vehicle: saline) was 104 % of control.
Turning to `CC12OCCCC1C1CCCCC12` (centres undefined), the T/C is, setting by setting: under setting [6], 95 % of control; under setting [7], 95 % of control; under setting [8], 90 % of control.
For the compound `CCCC(C)CC(=CC(C)(C)C)CC(C)CCC` (centres undefined), the T/C (dose: 50.0 mg/kg/injection, schedule: Q01DX009 (ip), vehicle: saline with Tween-80) is 96 % of control; the T/C under setting [10] was 100 % of control; the T/C under setting [11] is 100 % of control.
Regarding `CC(=O)NC1CC(n2cnc3c(=O)[nH]cnc32)OC1C(C)O` (centres undefined), the T/C (dose: 12.5 mg/kg/injection, schedule: Q01DX005 (ip), vehicle: water) is 101 % of control; the T/C (dose: 25.0 mg/kg/injection, schedule: Q01DX005 (ip), vehicle: water) was 98 % of control; the T/C (dose: 50.0 mg/kg/injection, schedule: Q01DX005 (ip), vehicle: water) is 101 % of control; the T/C (dose: 100.0 mg/kg/injection, schedule: Q01DX005 (ip), vehicle: water) is 98 % of control; the T/C (dose: 200.0 mg/kg/injection, schedule: Q01DX005 (ip), vehicle: water) was 92 % of control.
